Measurements taken from patent publication US10005762B2, “Pyridine derivatives” (Astellas Pharma Inc., priority 2014, dated 2018).
Marks after values point to notes of the source that are not given here.

target: IRAP (Rattus norvegicus (Rat), UniProt P97629); assay: Inhibition of IRAP activity (AVP degradation, rat epididymal fat pad microsomes, MALDI-MS); conditions: read-out: IRAP IC50, AVP 25 μM, 1 h at 37° C.
Sequence (P97629 whole entry): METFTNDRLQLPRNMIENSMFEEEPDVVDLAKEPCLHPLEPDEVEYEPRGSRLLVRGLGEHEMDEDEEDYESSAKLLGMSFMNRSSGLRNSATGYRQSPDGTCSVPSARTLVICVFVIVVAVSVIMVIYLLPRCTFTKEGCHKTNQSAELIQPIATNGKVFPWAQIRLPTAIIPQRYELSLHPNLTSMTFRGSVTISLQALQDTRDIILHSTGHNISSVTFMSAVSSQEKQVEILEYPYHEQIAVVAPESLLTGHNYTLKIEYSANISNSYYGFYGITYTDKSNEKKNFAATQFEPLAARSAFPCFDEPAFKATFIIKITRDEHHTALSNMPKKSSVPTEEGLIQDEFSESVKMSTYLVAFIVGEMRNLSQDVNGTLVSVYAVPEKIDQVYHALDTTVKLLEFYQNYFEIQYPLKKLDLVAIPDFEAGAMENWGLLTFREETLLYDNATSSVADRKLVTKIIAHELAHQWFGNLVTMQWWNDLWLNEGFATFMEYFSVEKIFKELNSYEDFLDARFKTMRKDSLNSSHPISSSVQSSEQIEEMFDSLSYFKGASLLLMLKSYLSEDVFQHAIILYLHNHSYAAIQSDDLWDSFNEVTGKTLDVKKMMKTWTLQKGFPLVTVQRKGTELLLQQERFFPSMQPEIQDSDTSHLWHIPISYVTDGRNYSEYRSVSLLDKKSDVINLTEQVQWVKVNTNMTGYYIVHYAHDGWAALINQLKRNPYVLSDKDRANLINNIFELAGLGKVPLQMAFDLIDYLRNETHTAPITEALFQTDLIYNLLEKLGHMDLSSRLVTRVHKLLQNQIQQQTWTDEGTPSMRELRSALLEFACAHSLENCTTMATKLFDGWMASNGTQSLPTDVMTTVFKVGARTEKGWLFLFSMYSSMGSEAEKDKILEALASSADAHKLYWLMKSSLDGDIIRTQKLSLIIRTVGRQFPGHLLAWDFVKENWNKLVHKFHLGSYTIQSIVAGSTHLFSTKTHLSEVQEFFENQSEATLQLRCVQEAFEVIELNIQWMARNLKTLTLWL
Protocol: (1) Inhibition of IRAP Activity
Residual AVP was then determined by mass spectrometry (MALDI-MS).

| IC50 [nM] | Structure (SMILES) |
| --- | --- |
| 110 | CC(C)C[C@H](N)[C@](O)(Cc1cc(C2=CCOCC2)ccn1)C(=O)O [Example 59] |
| 130 | CC(C)C[C@H](N)[C@](O)(Cc1nccc2c1CCC(OCc1ccccc1)C2)C(=O)O (some centres unmarked) [Example 80] |
| 160 | CC(C)C[C@H](N)[C@](O)(Cc1cc(C2CCOCC2)ccn1)C(=O)O [Example 78] |
| 220 | CC(C)C[C@H](N)[C@](O)(Cc1nccc2c1CCC1(CCCC1)C2)C(=O)O [Example 19] |
| 130 | COc1ccc(-c2ccnc(C[C@](O)(C(=O)O)[C@@H](N)CC(C)C)c2)cc1 [Example 57] |

test system: water-loaded rats; assay: Antidiuresis test in water-loaded rats (oral administration); assay type: in vivo, rat; conditions: 1 mg/kg oral (values marked *); water load 30 ml/kg 1 h after dosing; urine volume 1 h after water loading; vs vehicle control
Protocol: When a test compound is a free base, one molar equivalent hydrochloric acid was added to dissolve the compound in the solvent. Rats in a vehicle control group were administered only with the vehicle. One hour after the administration, 30 ml/kg of distilled water was orally administered to the rats. One hour after the water loading, the urine volume was measured (urine volumes less than 0.3 ml were considered as 0 ml) to calculate the ratio of the urine volume (urinary excretion rate) to the amount of water load.

| Structure (SMILES) | Inhibition of urination (%) |
| --- | --- |
| CSC[C@H](N)[C@](O)(Cc1nccc2c1C[C@H](CCC1CC1)C2)C(=O)O [Example 41] | 69* % |
| CCCSC[C@H](N)[C@](O)(Cc1nccc2c1C[C@H](CCC1CC1)C2)C(=O)O [Example 42] | 81* % |
| CSC[C@H](N)[C@](O)(Cc1nccc2c1C[C@@H](CCC1CC1)C2)C(=O)O [Example 44] | 51* % |

same assay, conditions: 3 mg/kg oral; water load 30 ml/kg 1 h after dosing; urine volume 1 h after water loading; vs vehicle control

| Structure (SMILES) | Inhibition of urination (%) |
| --- | --- |
| N[C@@H](CCC1CC1)[C@](O)(Cc1cc(CCCC2CC2)ccn1)C(=O)O [Example 40] | 100 |
| CC(C)C[C@H](N)[C@](O)(Cc1nccc2c1C[C@H](CCC1CC1)C2)C(=O)O [Example 52] | 90 |
| Cc1cnc(C[C@](O)(C(=O)O)[C@@H](N)COCCC2CC2)cc1CCCC1CC1 [Example 25] | 88 |
